Data published in US7163923B2, “Peptide deformylase activated prodrugs” (Celmed Oncology (USA), Inc., priority 2001, dated 2007).
Like-named read-outs stand apart in the source and are kept apart here.

Tests used:
Format in all cases: cell-based
[1] = Toxicity to mammalian cells; settings: after 16 hours of exposure
Protocol: Mammalian cells were treated with NB2046 as described above.

[2] = test system: S. aureus; test: MIC susceptibility testing (modified NCCLS, 384-well); settings: Staphylococcus aureus, read-out: MIC
Protocol: The NCCLS (National Committee for Clinical Laboratory Standards), method to determine MIC's of antimicrobial compounds is modified for high-throughput screening. All stocks of tested compounds are prepared in either water or in DMSO depending on solubility. At the highest concentration, DMSO content should not exceed 0.5%. Briefly, twenty 2-fold serial dilutions of test compounds from the highest concentration are made in a 384-well microtiter plate. Each well is inoculated with testing bacteria in broth to a final concentration of approximately 1–1.5×10^6 cells/ml. Bacterial growth is determined by the increase of optical density at 600 nm using a microplate reader (Tecan SpectraFluor Plus). The MIC is defined as the lowest concentration at which bacterial growth (equivalent to visible growth) was inhibited after 16 to 18 hours of incubation at the appropriate temperature required for the bacteria growth.
Using the assay provided above, the potency of NB2046 was compared to triclosan.

[3] = test system: E. cloacae; test: as above; settings: Enterobacter cloacae
Protocol: The NCCLS (National Committee for Clinical Laboratory Standards), method to determine MIC's of antimicrobial compounds is modified for high-throughput screening. All stocks of tested compounds are prepared in either water or in DMSO depending on solubility. At the highest concentration, DMSO content should not exceed 0.5%. Briefly, twenty 2-fold serial dilutions of test compounds from the highest concentration are made in a 384-well microtiter plate. […] Bacterial growth is determined by the increase of optical density at 600 nm using a microplate reader (Tecan SpectraFluor Plus).

CSCCC(NC=O)C(=O)NC(CC(C)C)C(=O)Oc1cc(Cl)ccc1Oc1ccc(Cl)cc1Cl (centres unmarked) [NB2046, 2-(2-formylamino-4-methylsulfanyl-butyrylamino)-4-methyl-pentanoic acid 5-chloro-2-(2,4-dichloro-phenoxy)-phenyl ester]
3.91 ng/mL: MIC ([2]; ATCC 700698 / MSSA, MSSA ATCC 700698, Table 5)
0.031 ng/mL: MIC ([2]; ATCC 700260 / MSSA, MSSA ATCC 700260, Table 5)
4000 ng/mL: MIC ([2]; ATCC 700260 / MSSA, MSSA ATCC 700260, Exp. #2, Table 4)
62.5 ng/mL: MIC ([2]; ATCC 700788 / MSSA, MSSA ATCC 700788, Table 5)
15.6 ng/mL: MIC ([2]; ATCC 33591 / MSSA, MSSA ATCC 33591, Table 5) | MIC ([2]; ATCC 700789 / MSSA, MSSA ATCC 700789, Table 5)
16000 ng/mL: MIC ([2]; ATCC 11632 / MSSA, MSSA ATCC 11632, Exp. #2, Table 4) | MIC ([2]; ATCC700699, S. aureus ATCC 700699, Exp. #1, Table 3) | MIC ([3]; ATCC23355, E. cloacae ATCC 23355, Exp. #1, Table 4)
7.81 ng/mL: MIC ([2]; ATCC 700787 / MSSA, MSSA ATCC 700787, Table 5)
≥ 4000 ng/mL: MIC ([2]; ATCC 700699 / MSSA, MSSA ATCC 700699, Table 5)
0.015 ng/mL: MIC ([2]; ATCC 13301 / MSSA, MSSA ATCC 13301, Table 5)
≤ 125 ng/mL: MIC ([2]; ATCC11632, S. aureus ATCC 11632, Exp. #1, Table 3) | MIC ([2]; ATCC11632, S. aureus ATCC 11632, Exp. #2, Table 3) | MIC ([2]; ATCC13301, S. aureus ATCC 13301, Exp. #1, Table 3) | MIC ([2]; ATCC13301, S. aureus ATCC 13301, Exp. #2, Table 3) | MIC ([2]; ATCC14154, S. aureus ATCC 14154, Exp. #1, Table 3) | MIC ([2]; ATCC14154, S. aureus ATCC 14154, Exp. #2, Table 3) | MIC ([2]; ATCC33591, S. aureus ATCC 33591, Exp. #1, Table 3) | MIC ([2]; ATCC33591, S. aureus ATCC 33591, Exp. #2, Table 3) | MIC ([2]; ATCC33592, S. aureus ATCC 33592, Exp. #1, Table 3) | MIC ([2]; ATCC33592, S. aureus ATCC 33592, Exp. #2, Table 3) | MIC ([2]; ATCC33593, S. aureus ATCC 33593, Exp. #1, Table 3) | MIC ([2]; ATCC33593, S. aureus ATCC 33593, Exp. #2, Table 3) | MIC ([2]; ATCC 33594 / MSSA, MSSA ATCC 33594, Exp. #1, Table 4) | MIC ([2]; ATCC 33594 / MSSA, MSSA ATCC 33594, Exp. #2, Table 4) | MIC ([2]; ATCC43300, S. aureus ATCC 43300, Exp. #1, Table 3) | MIC ([2]; ATCC43300, S. aureus ATCC 43300, Exp. #2, Table 3) | MIC ([2]; ATCC700260, S. aureus ATCC 700260, Exp. #1, Table 3) | MIC ([2]; ATCC700260, S. aureus ATCC 700260, Exp. #2, Table 3) | MIC ([2]; ATCC 700260 / MSSA, MSSA ATCC 700260, Exp. #1, Table 4) | MIC ([2]; ATCC700698, S. aureus ATCC 700698, Exp. #1, Table 3) | MIC ([2]; ATCC700698, S. aureus ATCC 700698, Exp. #2, Table 3) | MIC ([2]; ATCC700787, S. aureus ATCC 700787, Exp. #1, Table 3) | MIC ([2]; ATCC700787, S. aureus ATCC 700787, Exp. #2, Table 3) | MIC ([2]; ATCC700788, S. aureus ATCC 700788, Exp. #1, Table 3) | MIC ([2]; ATCC700788, S. aureus ATCC 700788, Exp. #2, Table 3) | MIC ([2]; ATCC700789, S. aureus ATCC 700789, Exp. #1, Table 3) | MIC ([2]; ATCC700789, S. aureus ATCC 700789, Exp. #2, Table 3)
0.488 ng/mL: MIC ([2]; ATCC 33592 / MSSA, MSSA ATCC 33592, Table 5) | MIC ([2]; ATCC 33593 / MSSA, MSSA ATCC 33593, Table 5)
~30 µM: IC50 at 16 h [1]
500 ng/mL: MIC ([3]; ATCC23355, E. cloacae ATCC 23355, Exp. #1, Table 3)
0.977 ng/mL: MIC ([2]; ATCC 11632 / MSSA, MSSA ATCC 11632, Table 5) | MIC ([2]; ATCC 14154 / MSSA, MSSA ATCC 14154, Table 5) | MIC ([2]; ATCC 43300 / MSSA, MSSA ATCC 43300, Table 5)
32000 ng/mL: MIC ([2]; ATCC 11632 / MSSA, MSSA ATCC 11632, Exp. #1, Table 4) | MIC ([2]; ATCC 700699 / MRSA, MRSA ATCC 700699, Exp. #1, Table 4) | MIC ([2]; ATCC 700699 / MRSA, MRSA ATCC 700699, Exp. #2, Table 4)
8000 ng/mL: MIC ([2]; ATCC700699, S. aureus ATCC 700699, Exp. #2, Table 3)
